System: TPM3-NTRK1-wt IC50 / primary target (e.g. CD74-ROS1-wt) IC50, Ba/F3 cells
Test: Cell assay TRKA selectivity (TRKA potency divided by primary target potency)
Assay type: cell-based
Conditions: for TPM3-NTRK1-wt/CD74-ROS1-G2032R: TRKA selectivity ratio: TPM3-NTRK1-wt IC50 / CD74-ROS1-G2032R IC50, Ba/F3 cells; for TPM3-NTRK1-wt/CD74-ROS1-wt: TRKA selectivity ratio: TPM3-NTRK1-wt IC50 / CD74-ROS1-wt IC50, Ba/F3 cells; for TPM3-NTRK1-wt/EML4-ALK-L1196M-G1202R: TRKA selectivity ratio: TPM3-NTRK1-wt IC50 / EML4-ALK-L1196M-G1202R IC50, Ba/F3 cells; for TPM3-NTRK1-wt/EML4-ALK-wt: TRKA selectivity ratio: TPM3-NTRK1-wt IC50 / EML4-ALK-wt IC50, Ba/F3 cells
How it was run: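 Ratio of TRKA to primary-target cellular IC50 (e.g. TPM3-NTRK1-wt/CD74-ROS1-wt), grouped into bins A >30, B >10, C ≥1, D <1. Each IC50 came from engineered Ba/F3 fusion lines grown without IL-3, dosed for 72 h and read as CellTiter-Glo luminescence, with a four-parameter logistic fit.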

Q: Which results are given for Cc1cc2n(n1)-c1ccc(F)cc1[C@@H](C)Oc1cc(cnc1N)-c1c(c(C)nn1CC1CC1)C2 [Example 141, (19R)-3-(cyclopropylmethyl)-16-fluoro-5,10,19-trimethyl-20-oxa-3,4,11,12,23-pentaazapentacyclo[19.3.1.0^2,^6.0^8,^12.0^13,^18]pentacosa-1(24),2(6),4,8,10,13,15,17,21(25),22-decaen-22-amine]?
A: TPM3-NTRK1-wt/CD74-ROS1-G2032R: A (bin A for very high selectivity, ratio>30-fold); TPM3-NTRK1-wt/CD74-ROS1-wt: A (bin A for very high selectivity, ratio>30-fold); TPM3-NTRK1-wt/EML4-ALK-L1196M-G1202R: A (bin A for very high selectivity, ratio>30-fold); TPM3-NTRK1-wt/EML4-ALK-wt: A (bin A for very high selectivity, ratio>30-fold)

Q: Which TPM3-NTRK1-wt/CD74-ROS1-G2032R does the source give for C[C@H]1Oc2cc(cnc2N)-c2c(cnn2CC2CC2)Cc2cc(C(F)F)nn2-c2ccc(F)cc21 [Example 130, (19R)-3-(cyclopropylmethyl)-10-(difluoromethyl)-16-fluoro-19-methyl-20-oxa-3,4,11,12,23-pentaazapentacyclo[19.3.1.0^2,^6.0^8,^12.0^13,^18]pentacosa-1(24),2(6),4,8,10,13,15,17,21(25),22-decaen-22-amine] here?
A: Its TPM3-NTRK1-wt/CD74-ROS1-G2032R is “A (bin A for very high selectivity, ratio>30-fold)”.

Q: And the TPM3-NTRK1-wt/CD74-ROS1-wt?
A: The TPM3-NTRK1-wt/CD74-ROS1-wt was “A (bin A for very high selectivity, ratio>30-fold)”.

Q: What about the TPM3-NTRK1-wt/EML4-ALK-L1196M-G1202R of the same compound?
A: Its TPM3-NTRK1-wt/EML4-ALK-L1196M-G1202R is “B (bin B for high selectivity, ratio>10-fold)”.

Q: And the TPM3-NTRK1-wt/EML4-ALK-wt?
A: Its TPM3-NTRK1-wt/EML4-ALK-wt is “A (bin A for very high selectivity, ratio>30-fold)”.

Q: What does the source list for C[C@H]1Oc2cc(cnc2N)-c2c(nnn2CC2CC2)Cc2cc(C(F)(F)F)nn2-c2ccc(F)cc21 [Example 128, (19R)-3-(cyclopropylmethyl)-16-fluoro-19-methyl-10-(trifluoromethyl)-20-oxa-3,4,5,11,12,23-hexaazapentacyclo[19.3.1.0^2,^6.0^8,^12.0^13,^18]pentacosa-1(24),2(6),4,8,10,13,15,17,21(25),22-decaen-22-amine]?
A: TPM3-NTRK1-wt/CD74-ROS1-G2032R: A (bin A for very high selectivity, ratio>30-fold); TPM3-NTRK1-wt/CD74-ROS1-wt: A (bin A for very high selectivity, ratio>30-fold); TPM3-NTRK1-wt/EML4-ALK-L1196M-G1202R: C (bin C for moderate selectivity, ratio≥1); TPM3-NTRK1-wt/EML4-ALK-wt: B (bin B for high selectivity, ratio>10-fold)

Q: Which TPM3-NTRK1-wt/CD74-ROS1-G2032R does the source give for CCn1ncc2c1-c1cnc(N)c(c1)O[C@H](C)c1cc(F)ccc1-c1nn(C)c(OC)c1C2 [Example 157, (19R)-3-ethyl-16-fluoro-9-methoxy-10,19-dimethyl-20-oxa-3,4,10,11,23-pentaazapentacyclo[19.3.1.0^2,^6.0^8,^12.0^13,^18]pentacosa-1(24),2(6),4,8,11,13,15,17,21(25),22-decaen-22-amine] here?
A: The TPM3-NTRK1-wt/CD74-ROS1-G2032R was “A (bin A for very high selectivity, ratio>30-fold)”.

Q: And the TPM3-NTRK1-wt/CD74-ROS1-wt?
A: Its TPM3-NTRK1-wt/CD74-ROS1-wt is “A (bin A for very high selectivity, ratio>30-fold)”.

Q: And the TPM3-NTRK1-wt/EML4-ALK-L1196M-G1202R?
A: The TPM3-NTRK1-wt/EML4-ALK-L1196M-G1202R was “C (bin C for moderate selectivity, ratio≥1)”.

Q: And the TPM3-NTRK1-wt/EML4-ALK-wt?
A: Its TPM3-NTRK1-wt/EML4-ALK-wt is “A (bin A for very high selectivity, ratio>30-fold)”.

Q: Which TPM3-NTRK1-wt/CD74-ROS1-G2032R does the source give for CCn1nc(Cl)c2c1-c1cnc(N)c(c1)O[C@H](C)c1cc(F)cnc1-c1nn(C)cc1C2 [Example 142, (19R)-5-chloro-3-ethyl-16-fluoro-10,19-dimethyl-20-oxa-3,4,10,11,14,23-hexaazapentacyclo[19.3.1.0^2,^6.0^8,^12.0^13,^18]pentacosa-1(24),2(6),4,8,11,13,15,17,21(25),22-decaen-22-amine] here?
A: Its TPM3-NTRK1-wt/CD74-ROS1-G2032R is “A (bin A for very high selectivity, ratio>30-fold)”.

Q: And the TPM3-NTRK1-wt/EML4-ALK-L1196M-G1202R?
A: Its TPM3-NTRK1-wt/EML4-ALK-L1196M-G1202R is “B (bin B for high selectivity, ratio>10-fold)”.

Q: How did the TPM3-NTRK1-wt/CD74-ROS1-G2032R turn out when Cc1nc2c(s1)Cc1c(c(C#N)nn1C)-c1cnc(N)c(c1)O[C@H](C)c1cc(F)ccc1-2 [Example 82, (19R)-22-amino-16-fluoro-5,10,19-trimethyl-20-oxa-9-thia-4,5,11,23-tetraazapentacyclo[19.3.1.0^2,^6.0^8,^12.0^13,^18]pentacosa-1(24),2(6),3,8(12),10,13,15,17,21(25),22-decaene-3-carbonitrile] was run?
A: Its TPM3-NTRK1-wt/CD74-ROS1-G2032R is “A (bin A for very high selectivity, ratio>30-fold)”.

Q: And the TPM3-NTRK1-wt/CD74-ROS1-wt?
A: Its TPM3-NTRK1-wt/CD74-ROS1-wt is “A (bin A for very high selectivity, ratio>30-fold)”.

Q: What about the TPM3-NTRK1-wt/EML4-ALK-L1196M-G1202R of the same compound?
A: Its TPM3-NTRK1-wt/EML4-ALK-L1196M-G1202R is “B (bin B for high selectivity, ratio>10-fold)”.

Q: What about the TPM3-NTRK1-wt/EML4-ALK-wt of the same compound?
A: The TPM3-NTRK1-wt/EML4-ALK-wt was “A (bin A for very high selectivity, ratio>30-fold)”.
